Assay results taken from ChEMBL document CHEMBL1132049, “Synthesis of novel analogues of the delta opioid ligand SNC-80 using REM resin” (Bioorg Med Chem Lett, 1999).
pIC50: −log10 of the molar value.

Experiments:
[1] = target: T1, Delta-type opioid receptor (Homo sapiens, UniProt P41143); experiment: Binding inhibition of [3H]- -naltrindole (0.15 nM) to membranes in CHO cells expressing Opioid receptor delta 1; type: cell-based
[2] = target: Mu-type opioid receptor (Rattus norvegicus, UniProt P33535); experiment: Binding affinity towards mu opioid receptor using [3H]- -DAMGO (1.5 nM) as radioligand in rat brain membranes; type: cell membranes
[3] = target: Kappa-type opioid receptor (Cavia porcellus, UniProt P41144); experiment: Binding affinity towards Opioid receptor kappa 1 using [3H]- U-69,593 (1.5 nM) as radioligand in guinea pig brain membranes; type: cell membranes, Membrane
[4] = target: T1, Delta-type opioid receptor; experiment: Compound was tested for inhibition of binding of [3H]- -naltrindole (0.15 nM) to membranes from CHO cells expressing human delta opioid receptor; type: cell membranes

T1 sequence (P41143 whole entry): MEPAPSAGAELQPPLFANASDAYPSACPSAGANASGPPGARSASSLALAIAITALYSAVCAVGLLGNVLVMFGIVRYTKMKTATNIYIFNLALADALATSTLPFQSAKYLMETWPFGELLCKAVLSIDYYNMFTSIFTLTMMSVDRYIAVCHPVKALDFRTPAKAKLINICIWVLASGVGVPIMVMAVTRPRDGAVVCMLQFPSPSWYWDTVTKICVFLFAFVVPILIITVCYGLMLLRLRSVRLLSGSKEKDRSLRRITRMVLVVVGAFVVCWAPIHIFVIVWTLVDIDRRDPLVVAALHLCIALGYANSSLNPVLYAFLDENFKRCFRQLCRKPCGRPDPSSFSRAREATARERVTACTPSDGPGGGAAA
Chain of Mu-type opioid receptor (P33535 whole entry): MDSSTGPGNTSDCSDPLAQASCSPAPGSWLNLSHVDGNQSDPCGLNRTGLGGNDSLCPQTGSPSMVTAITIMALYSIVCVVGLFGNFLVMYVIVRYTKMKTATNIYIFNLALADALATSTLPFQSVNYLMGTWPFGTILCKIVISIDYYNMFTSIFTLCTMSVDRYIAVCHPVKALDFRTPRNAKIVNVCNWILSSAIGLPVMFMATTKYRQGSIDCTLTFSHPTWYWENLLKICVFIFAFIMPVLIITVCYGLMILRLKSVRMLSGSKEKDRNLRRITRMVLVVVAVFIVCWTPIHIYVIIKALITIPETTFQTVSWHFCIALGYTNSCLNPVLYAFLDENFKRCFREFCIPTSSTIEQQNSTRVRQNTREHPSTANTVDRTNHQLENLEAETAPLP
Chain of Kappa-type opioid receptor (P41144 whole entry): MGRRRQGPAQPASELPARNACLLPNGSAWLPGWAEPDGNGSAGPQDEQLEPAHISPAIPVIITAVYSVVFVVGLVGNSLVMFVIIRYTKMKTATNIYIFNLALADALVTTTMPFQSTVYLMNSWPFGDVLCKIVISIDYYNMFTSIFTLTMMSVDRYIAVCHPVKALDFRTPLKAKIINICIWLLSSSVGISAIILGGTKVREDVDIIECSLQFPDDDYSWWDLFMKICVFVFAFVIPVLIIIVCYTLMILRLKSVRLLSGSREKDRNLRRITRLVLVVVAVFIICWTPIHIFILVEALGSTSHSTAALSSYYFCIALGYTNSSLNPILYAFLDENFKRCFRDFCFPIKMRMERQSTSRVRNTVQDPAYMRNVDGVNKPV

| Structure (SMILES) | pIC50 [1] | pIC50 [2] | pIC50 [3] | pIC50 [4] |
| --- | --- | --- | --- | --- |
| C=CCN1CCN(C(c2ccccc2)c2ccc(C(=O)Nc3ccc(OC)cc3)cc2)CC1 (configuration not stated) | 5.72 |  |  |  |
| C=CCN1CCN(C(c2ccccc2)c2ccc(C(=O)N(C)C)cc2)CC1 (configuration not stated) | 7.35 | < 4.30 |  |  |
| C=CCN1CCN(C(c2ccccc2)c2ccc(-c3ccccn3)cc2)CC1 (configuration not stated) | 6.60 |  |  |  |
| C=CCN1C[C@H](C)N(C(c2ccccc2)c2ccccc2)C[C@H]1C | 6.38 | 6.42 |  |  |
| C=CCN1CCN(C(c2ccccc2)c2ccc(C(=O)O)cc2)CC1 (configuration not stated) | 5.09 |  |  |  |
| C=CCN1CCN(C(c2ccccc2)c2ccc(C(=O)N3CCCCC3)cc2)CC1 (configuration not stated) | 7.08 | < 4.67 |  |  |
| C=CCN1C[C@H](C)N([C@@H](c2ccc(C(=S)N(CC)CC)cc2)c2cccc(OC)c2)C[C@H]1C | 8.28 | 5.20 | 5.07 |  |
| C=CCN1CCN(C(c2ccccc2)c2ccc(-c3cccnc3)cc2)CC1 (configuration not stated) | 6.30 |  |  |  |
| C=CCN1CCN(C(c2ccccc2)c2ccc(C(=O)N(Cc3cccnc3)CC(OCCC)OCCC)cc2)CC1 (configuration not stated) | 8.40 | < 5.00 |  |  |
| C=CCN1CCN([C@H](c2ccc(C(=O)N(CC)CC)cc2)c2cccc(OC)c2)CC1 | 8.13 | < 5.00 | < 5.00 |  |
| C=CCN1CCN(C(c2ccccc2)c2ccc(-c3ccccc3)cc2)CC1 (configuration not stated) | 5.76 |  |  |  |
| C=CCN1CCN(C(c2ccccc2)c2ccc(C(=O)N(CCC)CC3CC3)cc2)CC1 (configuration not stated) | 8.52 | < 5.00 |  |  |
| C=CCN1CCN(C(c2ccccc2)c2ccc(C(=O)NCC)cc2)CC1 (configuration not stated) | 6.44 |  |  |  |
| C=CCN1CCN([C@@H](c2ccccc2)c2ccc(C(=O)N(CC)CC)cc2)CC1 | 8.39 | < 5.00 | < 5.00 |  |
| C=CCN1C[C@H](C)N([C@@H](c2ccc(C(=O)OC)cc2)c2cccc(OC)c2)C[C@H]1C | 6.62 | 5.44 |  |  |
| C=CCN1CCN(C(c2ccccc2)c2ccc(C(=O)N(CCC)CCC)cc2)CC1 (configuration not stated) | 8.14 | 4.38 |  |  |
| C=CCN1C[C@H](C)N([C@@H](c2ccc(C(=O)O)cc2)c2cccc(OC)c2)C[C@H]1C | 6.35 | < 5.00 |  |  |
| C=CCN1C[C@H](C)N([C@H](c2ccccc2)c2ccc(C(=O)N(CC)CC)cc2)C[C@H]1C | 8.96 | 5.19 | < 5.00 |  |
| C=CCN1CCN(C(c2ccccc2)c2ccc(C(=O)OCC)cc2)CC1 (configuration not stated) | 5.86 |  |  |  |
| C=CCN1CCN(C(c2ccccc2)c2ccc(-c3cccs3)cc2)CC1 (configuration not stated) | 5.59 |  |  |  |
| C=CCN1C[C@H](C)N([C@@H](c2ccc(-c3ccccn3)cc2)c2cccc(OC)c2)C[C@H]1C | 7.66 | 5.19 | 5.68 |  |
| C=CCN1CCN(C(c2ccccc2)c2ccc(C(=O)OC)cc2)CC1 (configuration not stated) | 6.22 |  |  |  |
| C=CCN1CCN(C(c2ccccc2)c2ccc(C(=O)N(CC)CC)cc2)CC1 (configuration not stated) |  | < 5.00 |  | 8.30 |
